# Results published in patent publication US9364492B2, “Method for glycosylation of flavonoid compounds” (SUNTORY HOLDINGS LIMITED, priority 2007, dated 2016).
# Tests used:
# [1] = test system: TRa2; experiment: Glycosidase activity of TRa2 on sugars, TLC; format: biochemical, Trichoderma viride; conditions: 0.5% sugar, 20 mM acetate buffer pH 5.0, 50° C., 1 hour
# Description: The culture supernatant (500 μl) was concentrated about 5-fold using Microcon YM-30 (Amicon). The above concentrate (10 μl) was added to 100 μl of 20 mM acetate buffer (pH 5.0) containing 0.5% maltose, maltotriose, maltotetraose, dextrin, α-cyclodextrin, β-cyclodextrin or γ-cyclodextrin, and reacted at 50° C. for 1 hour.
# After completion of the reaction, each sample was analyzed by TLC as follows. The plate used was a silica gel G-60 plate (Merck & Co., Inc.), and the developing solution used was 2-propanol:acetone:0.5 M lactic acid=2:2:1. For detection, the plate was sprayed with sulfuric acid:ethanol=1:9, air-dried and then heated on a hot plate. As a result, none of the sugars was degraded in a culture solution of the control strain (strain C-1) transformed with vector pYE22m.
# [2] = Heat stability of glycoside; format: physicochemical; conditions: 100 μM in 10 mM potassium phosphate buffer pH 7.0, 4° C. to 100° C., 0 to 4 hours
# Description: After 10 mM potassium phosphate buffer (pH 7.0, 30 μl) containing 100 μM (+)-catechin or 4′-O-α-D-glucopyranosyl-(+)—catechin obtained in Example 4 was treated at different temperatures ranging from 4° C. to 100° C. for 0 to 4 hours, each sample was transferred on ice and mixed with 0.1% TFA (60 μl), followed by HPLC analysis in the same manner as shown in Example 1.
# [3] = Solubility of glycoside in water; format: physicochemical
# Description: (+)-Catechin or 5-O-α-D-glucopyranosyl-(+)-catechin obtained in Example 3 was added to water at different concentrations ranging from 10 to 450 mg/ml and dissolved by vigorous stirring, followed by centrifugation to remove precipitates. The supernatant was analyzed by HPLC to quantify the amounts of (+)-catechin and 5-O-α-D-glucopyranosyl-(+)-catechin. The same procedure was also repeated to study the solubility of (−)-epigallocatechin-3-β-gallate or 5-O-α-D-glucopyranosyl-(−)-epigallocatechin-3-O-gallate.
# [4] = test system: TRa2; experiment: Substrate specificity: glycosylation of acceptor compounds with dextrin by crude TRa2 enzyme solution, HPLC; format: biochemical, Trichoderma viride; conditions: 0.5 mM or 10 mM glycosyl acceptor compound, 10 mg dextrin, pH 5.2, 45° C., 24 hr
# Description: The strain TRa2-1 was cultured overnight at 30° C. with shaking in 10 ml YPD medium. After reaching the resting phase, the culture solution was inoculated into the same medium (2% (v/v)) and cultured with shaking at 30° C. for 3 days. After culturing, the supernatant was collected by centrifugation and concentrated 5-fold to give a crude enzyme solution of TRa2. The reaction was performed at 45° C. for 24 hr in 100 μl enzyme reaction solution containing 0.5 mM or 10 mM glycosyl acceptor compound ((+)-catechin, (−)-epigallocatechin-3-O-gallate, esculetin, naringenin, quercetin, daidzein, genistein or kaempferol), 10 mg dextrin, 100 mM acetate buffer (pH 5.2) and the crude enzyme solution, followed by HPLC analysis.
# [5] = test system: Cellulase “Onozuka” RS; experiment: Glycosyl donor selectivity 2: (+)-catechin, Cellulase “Onozuka” RS and each glycosyl donor, HPLC; format: biochemical, Trichoderma viride; conditions: substance as glycosyl donor (10 mg); (+)-catechin 3 mg; 50° C., 1 day, pH 5
# Description: (+)-Catechin (3 mg) was mixed with Cellulase “Onozuka” RS (10 mg), each glycosyl donor (10 mg) and 0.1 M acetate buffer (100 μl, pH 5), followed by stirring at 50° C. for 1 day. The glycosyl donors used were maltose, maltotriose, maltotetraose, maltopentaose, maltohexaose, maltoheptaose and dextrin (Nacalai Tesque, Inc., Japan), as well as γ-cyclodextrin (Wako Pure Chemical Industries, Ltd., Japan). After the reaction, the centrifuged supernatant was diluted 10-fold and analyzed by HPLC.
# [6] = test system: Cellulase “Onozuka” RS; experiment: Glycosyl donor selectivity 1: (+)-catechin, Cellulase “Onozuka” RS and each glycosyl donor, HPLC; format: biochemical, Trichoderma viride; conditions: substance as glycosyl donor (20 mg); (+)-catechin 6 mg; 50° C., 1 day, pH 5
# Description: (+)-Catechin (6 mg) was mixed with Cellulase “Onozuka” RS (20 mg), each glycosyl donor (20 mg) and 0.1 M acetate buffer (200 μl, pH 5), followed by stirring at 50° C. for 1 day. After the reaction, the centrifuged supernatant was diluted 10-fold and analyzed by HPLC. The glycosyl donors used were cellobiose (Sigma), dextran (Sigma), maltose (Nacalai Tesque, Inc., Japan), carboxymethylcellulose sodium (Nacalai Tesque, Inc., Japan), soluble starch (Nacalai Tesque, Inc., Japan), dextrin (Nacalai Tesque, Inc., Japan), isomaltooligosaccharide (Wako Pure Chemical Industries, Ltd., Japan), α-cyclodextrin (Wako Pure Chemical Industries, Ltd., Japan), γ-cyclodextrin (Wako Pure Chemical Industries, Ltd., Japan) and trehalose dihydrate (Nacalai Tesque, Inc., Japan).
Molecule,degradation of sugar in culture solution of strain TRa2-1 [1],area ratio (%) between acceptor compound and glycoside product [4] [%],Product (% area) 5-Glc [5] [% area],Product (% area) 7-Glc [5] [% area],other results
"OC[C@H]1O[C@H](O[C@H]2[C@H](O)[C@@H](O)C(O)O[C@@H]2CO)[C@H](O)[C@@H](O)[C@@H]1O (mixture of isomers) [Maltose, maltose]",no degradation,–,–,–,–
OC[C@H]1O[C@H](Oc2ccc([C@H]3Oc4cc(O)cc(O)c4C[C@@H]3O)cc2O)[C@H](O)[C@@H](O)[C@@H]1O [4′-O-α-D-glucopyranosyl-(+)-catechin],–,–,–,–,heat stability (% remaining) [2]: more stable against heat than catechin
OC[C@H]1O[C@H](Oc2cc(O)cc3c2C[C@H](O)[C@@H](c2ccc(O)c(O)c2)O3)[C@H](O)[C@@H](O)[C@@H]1O [5-O-α-D-glucopyranosyl-(+)-catechin],–,–,–,–,solubility relative to (+)-catechin [3]: at least 40 fold
O=C(O[C@@H]1Cc2c(O[C@H]3O[C@H](CO)[C@@H](O)[C@H](O)[C@H]3O)cc(O)cc2O[C@@H]1c1cc(O)c(O)c(O)c1)c1cc(O)c(O)c(O)c1 [5-O-α-D-glucopyranosyl-(−)-epigallocatechin-3-O-gallate],–,–,–,–,solubility compared to (−)-epigallocatechin-3-O-gallate ([3]; water): significantly increased solubility
Oc1cc(O)c2c(c1)O[C@H](c1ccc(O)c(O)c1)[C@@H](O)C2 [(+)-catechin],–,10,–,–,water solubility [3]: substantially insoluble in water
"OC[C@H]1O[C@H](O[C@H]2[C@H](O)[C@@H](O)[C@@H](O[C@H]3[C@H](O)[C@@H](O)[C@@H](O[C@H]4[C@H](O)[C@@H](O)C(O)O[C@@H]4CO)O[C@@H]3CO)O[C@@H]2CO)[C@H](O)[C@@H](O)[C@@H]1O (some centres unmarked) [Maltotetraose, maltotetraose]",degraded,–,7.15,1.60,–
O=c1c(-c2ccc(O)cc2)coc2cc(O)ccc12 [daidzein],–,10.7,–,–,–
O=c1ccc2cc(O)c(O)cc2o1 [esculetin],–,3.5,–,–,–
O=c1c(-c2ccc(O)cc2)coc2cc(O)cc(O)c12 [genistein],–,6.8,–,–,–
O=c1c(O)c(-c2ccc(O)cc2)oc2cc(O)cc(O)c12 [kaempferol],–,3.1,–,–,–
O=C1C[C@@H](c2ccc(O)cc2)Oc2cc(O)cc(O)c21 [naringenin],–,4.4,–,–,–
O=c1c(O)c(-c2ccc(O)c(O)c2)oc2cc(O)cc(O)c12 [quercetin],–,9.4,–,–,–
"OC[C@H]1O[C@@H]2O[C@H]3[C@H](O)[C@@H](O)[C@@H](O[C@H]4[C@H](O)[C@@H](O)[C@@H](O[C@H]5[C@H](O)[C@@H](O)[C@@H](O[C@H]6[C@H](O)[C@@H](O)[C@@H](O[C@H]7[C@H](O)[C@@H](O)[C@@H](O[C@H]1[C@H](O)[C@H]2O)O[C@@H]7CO)O[C@@H]6CO)O[C@@H]5CO)O[C@@H]4CO)O[C@@H]3CO [α-Cyclodextrin, α-cyclodextrin]",no degradation,–,–,–,–
OC[C@H]1O[C@@H]2O[C@H]3[C@H](O)[C@@H](O)[C@@H](O[C@H]4[C@H](O)[C@@H](O)[C@@H](O[C@H]5[C@H](O)[C@@H](O)[C@@H](O[C@H]6[C@H](O)[C@@H](O)[C@@H](O[C@H]7[C@H](O)[C@@H](O)[C@@H](O[C@H]8[C@H](O)[C@@H](O)[C@@H](O[C@H]1[C@H](O)[C@H]2O)O[C@@H]8CO)O[C@@H]7CO)O[C@@H]6CO)O[C@@H]5CO)O[C@@H]4CO)O[C@@H]3CO [β-cyclodextrin],no degradation,–,–,–,–
"OC[C@H]1O[C@@H]2O[C@H]3[C@H](O)[C@@H](O)[C@@H](O[C@H]4[C@H](O)[C@@H](O)[C@@H](O[C@H]5[C@H](O)[C@@H](O)[C@@H](O[C@H]6[C@H](O)[C@@H](O)[C@@H](O[C@H]7[C@H](O)[C@@H](O)[C@@H](O[C@H]8[C@H](O)[C@@H](O)[C@@H](O[C@H]9[C@H](O)[C@@H](O)[C@@H](O[C@H]1[C@H](O)[C@H]2O)O[C@@H]9CO)O[C@@H]8CO)O[C@@H]7CO)O[C@@H]6CO)O[C@@H]5CO)O[C@@H]4CO)O[C@@H]3CO [γ-Cyclodextrin, γ-cyclodextrin]",degraded,–,14.53,4.73,Product (% area) 5-Glc [6]: 14.69 % area; Product (% area) 7-Glc [6]: 5.91 % area
(−)-epigallocatechin-3-O-gallate,–,17.7,–,–,–
maltoheptaose,–,–,7.39,1.97,–
maltohexaose,–,–,7.89,2.06,–
maltopentaose,–,–,7.87,1.98,–
maltotriose,degraded,–,2.54,0.51,–
